Read-outs that look alike come from different tables or passages of the source. Each block holds one compound with its values, some of them ahead of it.
Key:
[1] = Multiple particle tracking of pyrene/stabilizer nanoparticles in CVM
Description: Prior to quantifying mobility of the produced pyrene nanoparticles, their spatial distribution in the mucus sample was assessed by microscopy at low magnifications (10×, 40×).
CVM was collected by inserting a Softcup® menstrual collection cup into the vaginal tract as described by the product literature for between 30 seconds and 2 minutes. After removal the CVM was then collected from the Softcup® by gentle centrifugation at ˜30×G to ˜120×G in a 50 mL centrifuge tube. In Example 1, CVM was used undiluted and fresh (stored for no longer than 7 days under refrigerated conditions). Barrier and transport of all CVM samples used in Example 1 were verified with negative (200 nm carboxylated polystyrene particles) and positive (200 nm polystyrene particles modified with PEG 5K) controls. In Example 2, CVM was lyophilized and reconstituted. In Example 2, mucus was frozen at −50° C. and then lyophilized to dryness. Samples were then stored at −50° C. Before use, the mucus was reconstituted by grinding the solid into a fine powder using a mortar and pestle followed by water addition to a final volume equal to the original volume to 2 times the original volume. The reconstituted mucus was then incubated at 4° C. for 12 hours and used as described in Example 2. Barrier and transport of all CVM samples used in Example 2 were verified with negative (200 nm carboxylated polystyrene particles) and positive (F127 coated 200 nm polystyrene particles) controls.

[2] = Multiple particle tracking of pyrene nanoparticles milled with PVAs and other surface-altering agents in CVM
Description: An aqueous dispersion containing pyrene and one of the surface-altering agents listed above was stirred with milling media until particle size was reduced below 500 nm (as measured by dynamic light scattering).
Prior to quantifying mobility of pyrene particles, their spatial distribution in the mucus sample was assessed visually.

[3] = tested on: vascular leakage after intravitreal injection of VEGF; experiment: Rabbit VEGF-challenge model (fluorescein angiography); type: in vivo, Dutch belted rabbits; settings: day 6; VEGF intravitreal on day 3; 5% axitinib-MPP 50 μL every 4 hours days 1-6, or one intravitreal Avastin on day 1
Excerpt: On day 3, the rabbits received an intravitreal injection of VEGF. On day 6, the rabbits were accessed for leakage via fluorescein angiography.
In this model, Dutch belted rabbits were given an intravitreal injection of VEGF to stimulate vascular growth. Fluorescein angiography was used to determine the degree to which the rabbits developed abnormal vascular and leakage.

[4] = type: in vitro ADME, human
Excerpt: The mobility of LE nanoparticles from the produced nanosuspensions in fresh undiluted human cervicovaginal mucus (CVM) was characterized by dark-field microscopy using a CytoViva® High Resolution Illumination System which allows visualization of fluorescent and non-fluorescent nano-sized objects. […] Mobility of particles in the movies was scored on a scale from 0 to 3 in order of increasing mobility, in a single-blind experiment by independent observers. The scoring criterion is as follows: 0-0.5 immobile; 0.51-1.5 slightly mobile; 1.51-2.5 moderately mobile; and 2.51-3.0 very mobile.

[5] = pyrene nanoparticles milled with the surface-altering agent, in CVM

Compound: CCCCCCCCCCCCCCCC[N+](C)(C)C [CTAB, Cetytrimethylammonium bromide]
Sample <Vmean> (ensemble-average velocity) ([1]; pyrene/stabilizer nanoparticles in CVM): 0.32 um/s | Sample (relative) <Vmean>rel ([1]; pyrene/stabilizer nanoparticles in CVM, relative to negative and positive controls): −0.02 | Sample (relative) <Vmean>rel [2, 5]: −0.02 | Sample <Vmean> [2, 5]: 0.32 um/s

Compound: Avastin®: positive control, one intravitreal injection; commonly used off-label to treat AMD
retinal vessel growth and leakage (fluorescein angiography) [3]: no change in retinal vasculature

Compound: Pluronic F68
mobility score in CVM [4]: < 0.50

Now from value to compound:

mobility score in CVM [4]: > 2.51
Compound: Pluronic F127

mobility score in CVM [4]: 1.51.-2.50
Compound: Pluronic P123

Sample (relative) <Vmean>rel [1]: 0.17 | Sample <Vmean> (ensemble-average velocity) [1]: 0.94 um/s | Sample (relative) <Vmean>rel [2]: 0.17 | Sample <Vmean> [2]: 0.94 um/s
Compound: Tween 80

Sample (relative) <Vmean>rel [1]: −0.02 | Sample <Vmean> (ensemble-average velocity) [1]: 0.42 um/s | Sample (relative) <Vmean>rel [2]: −0.02 | Sample <Vmean> [2]: 0.42 um/s
Compound: Tyloxapol
